The subject of one data set is West Nile virus. Description: Antiviral activity against West Nile virus. Format: functional, organism-based.
A further data set deals with Junin virus. Description: Antiviral activity against Junin virus. The settings on record: Mammarenavirus juninense. Format: functional, organism-based.
The test system of another data set is Yellow fever virus. Kind of data set: Antiviral activity against Yellow fever virus. The data set is classed as functional, organism-based.
Data set [1] has as its system Venezuelan equine encephalitis virus. Kind of data set: Antiviral activity against Venezuelan equine encephalitis virus. The data set is classed as functional, organism-based.
Another data set concerns Pichinde virus. Description: Antiviral activity against Pichinde virus infected in African green monkey Vero cells assessed as reduction in virus induced cytopathic effect. The data set is classed as functional, organism-based.
A further data set has as its system Chikungunya virus. Description: Antiviral activity against Chikungunya virus. Format: functional, organism-based.
The next data set concerns Human betaherpesvirus 5. Description: Antiviral activity against human cytomegalovirus. Format: functional, organism-based.
Another data set concerns Rift Valley fever virus. Kind of data set: Antiviral activity against Rift Valley fever virus. The data set is classed as functional, organism-based.
A further data set deals with Tacaribe virus. Description: Antiviral activity against Tacaribe virus infected in African green monkey Vero cells assessed as reduction in virus induced cytopathic effect. The data set is classed as functional, organism-based. The settings on record: Mammarenavirus tacaribeense.
In another data set the test system is Ebolavirus. Kind of data set: Antiviral activity against Ebolavirus infected in African green monkey Vero cells by immunofluorescent assay. The note with it: for EC50: Orthoebolavirus. The data set is classed as functional, organism-based.
The subject of the next data set is Zika virus. Kind of data set: Antiviral activity against Zika virus. The data set is classed as functional, organism-based.
The next data set has as its system H1N1 subtype. Kind of data set: Antiviral activity against Influenza A virus (H1N1). Format: functional.
The next data set concerns Human adenovirus 5. Description: Antiviral activity against Human adenovirus 5. Format: functional, organism-based.
The subject of data set [2] is Japanese encephalitis virus. Description: Antiviral activity against Japanese encephalitis virus. The data set is classed as functional, organism-based.
The next data set concerns Punta Toro virus. Kind of data set: Antiviral activity against Punta Toro virus. Format: functional, organism-based.
Another data set has as its system Lassa virus. Description: Antiviral activity against Lassa virus. The data set is classed as functional, organism-based. The settings on record: Mammarenavirus lassaense.
The nature of data set [3]: Cytotoxicity against African green monkey Vero cells. Format: cell-based. The settings on record: chlorocebus sabaeus.

For 5 compounds, Activity, EC50 and CC50 results are on record in ChEMBL document CHEMBL4396935, “l-like 3-deazaneplanocin analogues: Synthesis and antiviral properties” (Bioorg Med Chem Lett, 2019).

Converted amounts (≈) assume the structure as drawn. The source made the active and inactive calls. The rule behind the calls is not given here. Where only a bound is given, the exact number is not on record here.

Turning to `Nc1nccc2c1ncn2[C@H]1C=C(CF)[C@H](O)[C@@H]1O`, the result (in the data set on West Nile virus; with Junin virus; in the data set on Yellow fever virus; in data set [1]; in the data set with Pichinde virus; in the data set on Chikungunya virus) was inactive. Moreover, the outcome with Human betaherpesvirus 5, in the data set with Rift Valley fever virus, in the data set with Tacaribe virus, in the data set with Ebolavirus, in the data set on Zika virus and with H1N1 subtype was inactive. Also, the result (in the data set on Human adenovirus 5; in data set [2]; with Punta Toro virus; in the data set with Lassa virus) was inactive.
For orientation: EC50 means the concentration needed to bring the measured effect to its halfway point. As for `NC(=O)c1nc(F)cnc1O` [FAVIPIRAVIR], a half-maximal response with Ebolavirus (EC50) required 18.6 µg/mL (≈ 118 µM).
Usually CC50 stands for the concentration that lowers cell viability or growth by half. `Nc1nccc2c1ncn2[C@H]1C=C(CO)[C@H](O)[C@@H]1O` returned a CC50 in [3] of 12 to 85 µg/mL (≈ 45.8 to 324 µM). Moreover, the result (in the data set on Junin virus; with Chikungunya virus; with Human betaherpesvirus 5; in the data set on H1N1 subtype; in the data set with Human adenovirus 5; in data set [2]) was inactive. Also, the outcome in the data set on Lassa virus was inactive. In addition, the EC50 with Pichinde virus was 0.9 µg/mL (≈ 3.43 µM); in the data set with Tacaribe virus, 1.3 µg/mL (≈ 4.96 µM); in the data set with Ebolavirus, 8.7 µg/mL (≈ 33.2 µM).
For the compound `NC(=O)c1ncn([C@@H]2O[C@H](CO)[C@@H](O)[C@H]2O)n1` [RIBAVIRIN], the EC50 in the data set with Pichinde virus was determined as 12 µg/mL (≈ 49.1 µM); in the data set on Tacaribe virus, 9.3 µg/mL (≈ 38.1 µM).
For the compound `Nc1ncc(Br)c2c1ncn2[C@H]1C=C(CO)[C@H](O)[C@@H]1O`, the CC50 in data set [3] fell in the range of 83 to 100 µg/mL (≈ 243 to 293 µM). The outcome (with Junin virus; in the data set on Chikungunya virus; with Human betaherpesvirus 5; in the data set with H1N1 subtype; in the data set on Human adenovirus 5; in data set [2]) was inactive. Besides, in the data set with Lassa virus, the result was inactive. Besides, the results for the EC50 in the data set on Pichinde virus, in the data set with Tacaribe virus and with Ebolavirus were more than 100 µg/mL, more than 100 µg/mL and 4.2 µg/mL (≈ 12.3 µM), respectively.
